Laboratory results published in patent publication EP4741383A1, “COMPOUND AND USE THEREOF AS ANTI-CANCER DRUG” (Tyligand Bioscience (Shanghai) Limited, priority 2023, dated 2025).

Assays:
Format in all cases: biochemical
[1] = target: T1, STEP (Homo sapiens, UniProt P54829); experiment: Tyrosine phosphatase selectivity (pNPP substrate), STEP; conditions: for IC50: STEP, pNPP substrate; for IC50PTP/IC50SHP2 STEP: selectivity ratio STEP over SHP2
T1 construct: made in house; host or cells: E. coli
T1 sequence (P54829 1-565): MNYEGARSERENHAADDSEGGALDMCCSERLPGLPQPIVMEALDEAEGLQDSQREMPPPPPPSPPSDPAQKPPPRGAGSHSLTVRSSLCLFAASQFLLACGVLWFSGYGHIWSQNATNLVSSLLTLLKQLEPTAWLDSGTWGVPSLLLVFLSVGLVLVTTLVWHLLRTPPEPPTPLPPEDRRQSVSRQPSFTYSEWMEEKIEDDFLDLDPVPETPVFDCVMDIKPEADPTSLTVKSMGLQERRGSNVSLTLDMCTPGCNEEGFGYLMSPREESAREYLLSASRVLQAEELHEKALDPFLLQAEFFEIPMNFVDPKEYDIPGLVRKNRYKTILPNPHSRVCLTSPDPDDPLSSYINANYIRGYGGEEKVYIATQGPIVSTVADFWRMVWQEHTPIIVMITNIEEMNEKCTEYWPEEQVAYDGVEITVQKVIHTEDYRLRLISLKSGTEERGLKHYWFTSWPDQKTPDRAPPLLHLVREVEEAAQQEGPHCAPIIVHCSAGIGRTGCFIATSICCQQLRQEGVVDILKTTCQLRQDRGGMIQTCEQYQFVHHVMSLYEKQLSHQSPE
Protocol: (§1) This experiment evaluated the selectivity of the disclosed compounds against tyrosine phosphatases, including SHP1, HePTP, Laforin, LMWPTP, LYP, PTP1B, PRL2, SSU72, VHR, FAP1, STEP, CDC14A, CD45, MEG2, and PP5, all expressed and purified from E. coli.
(§2) Phosphatase activity was measured using p-nitrophenyl phosphate (pNPP) (Fisher Scientific) as the substrate in 50 mM 3,3-dimethylglutaric acid buffer (pH 7.0, containing 1 mM EDTA), with ionic strength adjusted to 0.15 M with NaCl. […] After 10-60 minutes, the reaction was quenched by adding 20 µL of 5 N NaOH. Wells without enzyme were used as controls for correction. The amount of the product, p-nitrophenol, was determined by measuring the absorbance at 405 nm using a Spectra MAX340 microplate spectrophotometer (Molecular Devices), with a molar extinction coefficient of 18000 M^-1cm^-1.
(§3) Data were analyzed using GraphPad Prism software. Dose-response curves were obtained by fitting data using the nonlinear S-curve regression Dose-response-inhibition equation, and IC50 values were calculated.

[2] = target: T2, CDC14A (Homo sapiens, UniProt Q9UNH5); experiment: Tyrosine phosphatase selectivity (pNPP substrate), CDC14A; conditions: for IC50PTP/IC50SHP2 CDC14A: selectivity ratio CDC14A over SHP2; for IC50: CDC14A, pNPP substrate
T2 construct: made in house; host or cells: E. coli
T2 sequence (Q9UNH5 1-594): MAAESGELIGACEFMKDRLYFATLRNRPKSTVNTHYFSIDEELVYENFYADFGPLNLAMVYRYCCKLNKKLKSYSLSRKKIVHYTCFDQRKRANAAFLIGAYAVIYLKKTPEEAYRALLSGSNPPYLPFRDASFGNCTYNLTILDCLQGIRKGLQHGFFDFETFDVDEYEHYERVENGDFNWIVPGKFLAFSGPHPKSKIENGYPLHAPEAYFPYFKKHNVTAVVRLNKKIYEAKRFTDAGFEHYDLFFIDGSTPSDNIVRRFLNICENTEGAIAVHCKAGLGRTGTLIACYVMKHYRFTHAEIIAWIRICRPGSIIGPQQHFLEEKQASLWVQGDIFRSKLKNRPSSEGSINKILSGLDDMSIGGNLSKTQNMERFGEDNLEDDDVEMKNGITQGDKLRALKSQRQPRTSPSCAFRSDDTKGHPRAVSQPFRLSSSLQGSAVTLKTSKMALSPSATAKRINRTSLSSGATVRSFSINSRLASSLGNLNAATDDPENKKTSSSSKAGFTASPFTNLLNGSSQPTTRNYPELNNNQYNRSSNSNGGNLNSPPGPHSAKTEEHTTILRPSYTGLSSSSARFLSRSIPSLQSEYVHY
Protocol: as §1, §2, §3

[3] = target: T3, PP5 (Homo sapiens, UniProt P53041); experiment: Tyrosine phosphatase selectivity (pNPP substrate), PP5; conditions: for IC50: PP5, pNPP substrate; for IC50PTP/IC50SHP2 PP5: selectivity ratio PP5 over SHP2
T3 construct: made in house; host or cells: E. coli
T3 sequence (P53041 1-499): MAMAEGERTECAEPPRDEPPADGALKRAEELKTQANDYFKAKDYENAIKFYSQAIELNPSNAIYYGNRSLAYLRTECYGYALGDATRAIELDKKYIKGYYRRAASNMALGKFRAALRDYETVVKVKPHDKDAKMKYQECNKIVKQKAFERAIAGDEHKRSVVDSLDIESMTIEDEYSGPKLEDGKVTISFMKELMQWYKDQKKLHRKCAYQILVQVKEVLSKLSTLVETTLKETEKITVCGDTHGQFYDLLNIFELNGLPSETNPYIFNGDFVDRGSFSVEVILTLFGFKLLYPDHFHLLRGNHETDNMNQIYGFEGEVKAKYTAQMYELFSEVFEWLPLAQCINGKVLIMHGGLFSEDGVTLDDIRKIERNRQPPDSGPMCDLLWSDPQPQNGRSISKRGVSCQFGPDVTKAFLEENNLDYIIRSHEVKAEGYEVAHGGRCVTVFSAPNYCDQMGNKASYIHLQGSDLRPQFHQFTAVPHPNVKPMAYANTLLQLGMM
Protocol: as §1, §2, §3

O=C(Nc1ccc(-c2cc3cc(F)c(-c4nnn[nH]4)cc3n2C2CCC2)cc1)C(=O)Nc1ccc(N2CCC3(CCOC3)CC2)cc1 [Example 67]
IC50 [1]: 6.94 µM | IC50PTP/IC50SHP2 STEP [1]: 204.1 | IC50PTP/IC50SHP2 CDC14A [2]: 2941 | IC50 [3]: > 100 µM | IC50PTP/IC50SHP2 PP5 [3]: 2941

O=C(Nc1ccc(-c2oc3cc(F)c(-c4nnn[nH]4)cc3c2C2CCC2)cc1)C(=O)Nc1ccc(N2CCC3(CCOC3)CC2)cc1 [Example 125]
IC50 [1]: 6.62 µM | IC50PTP/IC50SHP2 STEP [1]: 129.8 | IC50 [2]: > 100 µM | IC50PTP/IC50SHP2 CDC14A [2]: 1960.8 | IC50 [3]: > 100 µM | IC50PTP/IC50SHP2 PP5 [3]: 1960.8

O=C(Nc1ccc(-c2cc3cc(F)c(-c4nnn[nH]4)cc3n2C2CCC2)cc1)C(=O)Nc1ccc(N2CCOCC2)cc1 [Example 47]
IC50 [1]: 0.77 µM | IC50PTP/IC50SHP2 STEP [1]: 12.2 | IC50PTP/IC50SHP2 CDC14A [2]: 1587 | IC50 [3]: > 100 µM | IC50PTP/IC50SHP2 PP5 [3]: 1587

Cn1cc(-c2ccc(NC(=O)C(=O)Nc3ccc(-c4cc5cc(F)c(-c6nnc(C(F)(F)F)[nH]6)cc5n4C4CCC4)cc3)cc2)cn1 [Example 124]
IC50 [1]: > 100 µM | IC50PTP/IC50SHP2 STEP [1]: 139.7 | IC50 [2]: > 100 µM | IC50PTP/IC50SHP2 CDC14A [2]: 139.7 | IC50 [3]: > 100 µM | IC50PTP/IC50SHP2 PP5 [3]: 139.7

O=C(Nc1ccc(-c2ccsc2)cc1)C(=O)Nc1ccc(-c2cc3cc(F)c(-c4nnn[nH]4)nc3n2C2CCC2)cc1 [Example 132]
IC50 [1]: 10.6 µM | IC50PTP/IC50SHP2 STEP [1]: 392.6 | IC50 [2]: > 50 µM | IC50PTP/IC50SHP2 CDC14A [2]: 1851.9 | IC50 [3]: > 50 µM | IC50PTP/IC50SHP2 PP5 [3]: 1851.9

O=C(Nc1ccc(-c2ccsc2)cc1)C(=O)Nc1ccc(-c2cc3cnc(-c4nnn[nH]4)nc3n2C2CCC2)cc1 [Example 131]
IC50 [1]: 8.4 µM | IC50PTP/IC50SHP2 STEP [1]: 323.1 | IC50 [2]: > 50 µM | IC50PTP/IC50SHP2 CDC14A [2]: 1923.1 | IC50 [3]: > 50 µM | IC50PTP/IC50SHP2 PP5 [3]: 1923.1

Cn1cc(-c2ccc(NC(=O)C(=O)Nc3ccc(-c4cc5cc(F)c(-c6noc(=O)[nH]6)cc5n4C4CCC4)cc3)cc2)cn1 [Example 123]
IC50 [1]: 15.5 µM | IC50PTP/IC50SHP2 STEP [1]: 109.9 | IC50 [2]: > 100 µM | IC50PTP/IC50SHP2 CDC14A [2]: 709.2 | IC50 [3]: > 100 µM | IC50PTP/IC50SHP2 PP5 [3]: 709.2

O=C(Nc1ccc(-c2cc3cc(F)c(-c4nnn[nH]4)cc3n2C2CCC2)cc1)C(=O)Nc1ccc(N2CC3COCC3C2)cc1 (stereo not shown) [Example 114]
IC50 [1]: 1.83 µM | IC50PTP/IC50SHP2 STEP [1]: 25.4 | IC50PTP/IC50SHP2 CDC14A [2]: 1388 | IC50 [3]: > 100 µM | IC50PTP/IC50SHP2 PP5 [3]: 1388

Cn1c(-c2cccc(NC(=O)C(=O)Nc3ccc(-c4ccsc4)cc3)c2)c(I)c2cc(C(=O)O)c(O)cc21 [Example 11a-1, reference compound]
IC50 [1]: 4 µM | IC50PTP/IC50SHP2 STEP [1]: 37.0 | IC50 [2]: 16 µM | IC50PTP/IC50SHP2 CDC14A [2]: 148

O=C(Nc1ccc(-c2ccsc2)cc1)C(=O)Nc1ccc(-c2cc3ccc(-c4nnn[nH]4)nc3n2C2CCC2)cc1 [Example 129]
IC50 [1]: < 3 µM | IC50PTP/IC50SHP2 STEP [1]: 50.8 | IC50 [2]: 34.6 µM | IC50PTP/IC50SHP2 CDC14A [2]: 586.4 | IC50 [3]: > 50 µM | IC50PTP/IC50SHP2 PP5 [3]: 847.5

O=C(Nc1ccc(-c2ccsc2)cc1)C(=O)Nc1ccc(-c2oc3cc(F)c(-c4nnn[nH]4)cc3c2C2CCC2)cc1 [Example 130]
IC50 [1]: < 3 µM | IC50PTP/IC50SHP2 STEP [1]: 120 | IC50 [2]: > 50 µM | IC50PTP/IC50SHP2 CDC14A [2]: 2000 | IC50 [3]: > 50 µM | IC50PTP/IC50SHP2 PP5 [3]: 2000

CC1(n2c(-c3ccc(NC(=O)C(=O)Nc4ccc(N5CCC6(CCOC6)CC5)cc4)cc3)cc3cc(F)c(-c4nnn[nH]4)cc32)CCC1 [Example 68]
IC50 [1]: 8.23 µM | IC50PTP/IC50SHP2 STEP [1]: 171.5 | IC50 [2]: > 25 µM | IC50PTP/IC50SHP2 CDC14A [2]: 520.8 | IC50 [3]: > 25 µM | IC50PTP/IC50SHP2 PP5 [3]: 520.8

O=C(Nc1ccc(-c2ccsc2)cc1)C(=O)Nc1ccc(-c2cc3cc(F)c(-c4nnn[nH]4)cc3n2C2CCC2)cc1 [Example 4]
IC50 [1]: 4.5 µM | IC50PTP/IC50SHP2 STEP [1]: 155.2 | IC50 [2]: > 50 µM | IC50PTP/IC50SHP2 CDC14A [2]: 1724.1 | IC50 [3]: > 50 µM | IC50PTP/IC50SHP2 PP5 [3]: 1724.1
